Results taken from patent publication US7053113B2, “Mannich base prodrugs of 3-(pyrrol-2-yl-methylidene)-2-indolinone derivatives” (Sugen, Inc., priority 2000, dated 2006).

How the values were obtained:
[1] = Plasma Stability Test: conversion of prodrug to drug after IV administration to dogs; type: in vivo; conditions: IV at 2 mg/mL, HPLC analysis of blood plasma for 4 hours following dosing
Procedure: The prodrug (3Z)-3-[(3,5-dimethyl-1H-pyrrol-2-yl)-methylidene]-1-(1-pyrrolidinylmethyl)-1,3-dihydro-2H-indol-2-one was administered IV at 2 mg/mL to dogs. Levels of both prodrug and drug (3(Z)-3-[(3,5-dimethyl-1H-pyrrol-2-yl)-methylidene]-1,3-dihydro-2H-indol-2-one) were followed by HPLC analysis of blood plasma for 4 hours following dosing.

[2] = Aqueous solubility of the prodrug compared with the parent compound; type: physicochemical; conditions: compared with parent compound (II)

For `Cc1cc(C)c(/C=C2\C(=O)N(CN3CCCC3)c3ccccc32)[nH]1` [Example 2, (3Z)-3-[(3,5-dimethyl-1H-pyrrol-2-yl)-methylidene]-1-(1-pyrrolidinylmethyl)-1,3-dihydro-2H-indol-2-one], the “prodrug converted into drug (area under the curve of drug concentration vs time)” value [1] was 80% and the “aqueous solubility over the parent compound” value [2] was “increased aqueous solubility”.
